{"source": "patent US20110294722A1", "about": "“ANTIMICROBIAL PEPTIDES” (priority 2008, published 2011)", "key": {"[1]": {"tested_on": "Clavibacter michiganensis sub. michiganensis", "settings": "overnight 25° C."}, "[2]": {"tested_on": "Pseudomonas syringae pv. tomato"}, "Xanthomonas vesicatoria [3]": {"tested_on": "Xanthomonas vesicatoria"}, "[4]": {"tested_on": "Pectobacterium carotovorum sub. carotovorum"}, "Pseudomonas corrugata [5]": {"tested_on": "Pseudomonas corrugata"}, "Botrytis cinerea": {"tested_on": "Botrytis cinerea", "assay": "In-vitro inhibition assay (MIC), Example 2", "type": "cell-based", "settings": "visual screening", "protocol": "(§1) In-vitro inhibition assays were performed in sterile flat-bottom 96-well plates (Greiner bio-one, Frickenhausen). Antimicrobial peptides were dissolved in 0.01% acetic acid containing 0.2% BSA (500 μg/ml), filter sterilized and stored at −20° C. For inhibition assays dilutions of peptides ranging from 5 to 200 μg/ml were prepared and 10 μl (antibacterial assay) or 20 μl (antifungal assay) of each concentration was loaded per well.\n(§2) Spores of fungi were collected by water washes of sporulating cultures grown on 2% malt extract agar and spore concentration was determined by microscopy. The concentration of the spores was adjusted to 1.5-2×10^3 spores/ml in 2% malt extract medium and 80 μl of fungal spores were added per well. The final peptide concentrations used in the fungal inhibition assays were […]. After overnight incubation at room temperature the plate were put on a rotary shaker (300 rpm) for further two days to ensure consistantly growth. Antifungal effects of the peptides were determined by a microplate reader (Alternaria, Fusarium) at OD590 nm or by visual screening of the plates (Botrytis, Cladosporium).\n(§3) The lowest peptide concentration leading to complete inhibition of bacterial growth or spore germination/mycelial growth (minimal inhibition concentration, MIC) was determined for each organism-peptide combination. For each peptide concentration two identical inhibition assays were performed."}, "Alternaria alternata": {"tested_on": "Alternaria alternata", "assay": "In-vitro inhibition assay (MIC), Example 2", "type": "cell-based", "settings": "OD590 nm", "protocol": "as §1, §2, §3"}, "Cladosporium herbarum": {"tested_on": "Cladosporium herbarum", "assay": "In-vitro inhibition assay (MIC), Example 2", "type": "cell-based", "settings": "visual screening", "protocol": "as §1, §2, §3"}, "[6]": {"tested_on": "Pseudomonas syringae pv. syringae"}, "phytopathogenic fungi": {"tested_on": "phytopathogenic fungi", "assay": "Antifungal inhibition assay, summary statement", "type": "cell-based", "settings": "summary of Table 1", "protocol": "as §1, §2\nThe lowest peptide concentration leading to complete inhibition of bacterial growth or spore germination/mycelial growth (minimal inhibition concentration, MIC) was determined for each organism-peptide combination. […]"}, "[7]": {"tested_on": "Pseudomonas syringae pv. syringae", "type": "cell-based", "protocol": "as §1, with “20” for “20 μl”\n(§4) Bacteria colonies from overnight agar plate cultures were resuspended into 5 ml LB-medium or HPG-medium (OD600 nm=0.08-0.1) and diluted into LB-medium/HPG-medium (1:100). 90 μl of this suspension containing about 10^5-10^6 CFU/ml of tested bacteria were added to each well resulting in final peptide concentrations of 0, 0.5, 1, 2, 5, 10, and 20 μg/ml. […] The lowest concentration, in which there is no observable growth (>90% inhibition) is referred to as minimal inhibitory concentration (MIC). […] For each peptide concentration two identical inhibition assays were performed."}, "[8]": {"tested_on": "Pseudomonas syringae pv. tomato", "type": "cell-based", "protocol": "as §1, with “20” for “20 μl”\nas §4"}, "[9]": {"tested_on": "Pectobacterium carotovorum", "type": "cell-based", "protocol": "as §1, with “20” for “20 μl”\nas §4"}, "Pseudomonas corrugata [10]": {"tested_on": "Pseudomonas corrugata", "type": "cell-based", "protocol": "as §1, with “20” for “20 μl”\nas §4"}, "[11]": {"tested_on": "Clavibacter michiganensis", "assay": "In-vitro inhibition assay (MIC and LC), Example 3", "type": "cell-based", "protocol": "as §1, with “20” for “20 μl”\nas §4"}, "Xanthomonas vesicatoria [12]": {"tested_on": "Xanthomonas vesicatoria", "assay": "In-vitro inhibition assay (MIC and LC), Example 3", "type": "cell-based", "protocol": "as §1, with “20” for “20 μl”\nas §4"}}, "note": "Where two headings read alike, the source gives them in different places. No end group written: not given here.", "data": [{"substance": "SP1-D: Polypeptide SP1 (RKKRLKLLKRLV) with D-amino acids incorporated; D positions marked bold/italic in b61, not recoverable (also: D-amino acids at unstated positions)", "values": [{"measurement": "Minimal inhibition concentration (MIC) for complete inhibition of bacterial growth", "setting": "[1]", "value": 40, "unit": "µg/mL"}, {"measurement": "Minimal inhibition concentration (MIC) for complete inhibition of bacterial growth", "setting": "[2]; Pseudomonas syringae pv. tomato, overnight 25° C.", "value": 5, "unit": "µg/mL"}, {"measurement": "Minimal inhibition concentration (MIC) for complete inhibition of bacterial growth", "setting": "Xanthomonas vesicatoria [3]; Xanthomonas vesicatoria, overnight 25° C.", "value": 40, "unit": "µg/mL"}, {"measurement": "Minimal inhibition concentration (MIC) for complete inhibition of bacterial growth", "setting": "[4]; Pectobacterium carotovorum sub. carotovorum, overnight 25° C.", "value": ">40", "unit": "µg/mL"}, {"measurement": "Minimal inhibition concentration (MIC) for complete inhibition of bacterial growth", "setting": "Pseudomonas corrugata [5]; Pseudomonas corrugata, overnight 25° C.", "value": 20, "unit": "µg/mL"}, {"measurement": "Minimal inhibition concentration (MIC) for complete inhibition of spore germination/mycelial growth", "setting": "Botrytis cinerea", "value": ">40", "unit": "µg/mL"}, {"measurement": "Minimal inhibition concentration (MIC) for complete inhibition of spore germination/mycelial growth", "setting": "Alternaria alternata", "value": 20, "unit": "µg/mL"}, {"measurement": "Minimal inhibition concentration (MIC) for complete inhibition of spore germination/mycelial growth", "setting": "Cladosporium herbarum", "value": 20, "unit": "µg/mL"}, {"measurement": "Minimal inhibition concentration (MIC) for complete inhibition of bacterial growth", "setting": "[6]; Pseudomonas syringae pv. syringae, overnight 25° C.", "value": 5, "unit": "µg/mL"}, {"measurement": "Efficacy against phytopathogenic fungi", "setting": "phytopathogenic fungi", "value": "high efficacy against phytopathogenic fungi"}]}, {"substance": "KKKAARALKRAL-NH2 [Sp4, KKKAARALKRAL]", "values": [{"measurement": "Minimal inhibition concentration (MIC) for complete inhibition of spore germination/mycelial growth", "setting": "Botrytis cinerea", "value": ">100", "unit": "µg/mL"}, {"measurement": "Minimal inhibition concentration (MIC) for complete inhibition of spore germination/mycelial growth", "setting": "Alternaria alternata", "value": ">100", "unit": "µg/mL"}, {"measurement": "Minimal inhibition concentration (MIC) for complete inhibition of spore germination/mycelial growth", "setting": "Cladosporium herbarum", "value": 40, "unit": "µg/mL"}]}, {"substance": "RKRFARFAKRAV-NH2 [Sp3]", "values": [{"measurement": "Minimal inhibition concentration (MIC) for complete inhibition of spore germination/mycelial growth", "setting": "Botrytis cinerea", "value": ">100", "unit": "µg/mL"}, {"measurement": "Minimal inhibition concentration (MIC) for complete inhibition of spore germination/mycelial growth", "setting": "Alternaria alternata", "value": ">100", "unit": "µg/mL"}, {"measurement": "Minimal inhibition concentration (MIC) for complete inhibition of spore germination/mycelial growth", "setting": "Cladosporium herbarum", "value": 40, "unit": "µg/mL"}]}, {"substance": "RKRAARLLKRLV-NH2 [Sp2]", "values": [{"measurement": "Minimal inhibition concentration (MIC) for complete inhibition of spore germination/mycelial growth", "setting": "Botrytis cinerea", "value": ">100", "unit": "µg/mL"}, {"measurement": "Minimal inhibition concentration (MIC) for complete inhibition of spore germination/mycelial growth", "setting": "Alternaria alternata", "value": ">100", "unit": "µg/mL"}, {"measurement": "Minimal inhibition concentration (MIC) for complete inhibition of spore germination/mycelial growth", "setting": "Cladosporium herbarum", "value": 20, "unit": "µg/mL"}]}, {"substance": "RKKRLKLLKRLV-NH2 [SP1]", "values": [{"measurement": "MIC (>90% inhibition)", "setting": "[7]", "value": 0.1, "unit": "µg/mL"}, {"measurement": "LC (lethal concentration, 100% inhibition)", "setting": "[7]; Pseudomonas syringae pv. syringae, at least 4 days of incubation", "value": 0.5, "unit": "µg/mL"}, {"measurement": "MIC (>90% inhibition)", "setting": "[8]", "value": "10/10 μg/ml"}, {"measurement": "LC (lethal concentration, 100% inhibition)", "setting": "[8]; Pseudomonas syringae pv. tomato, at least 4 days of incubation", "value": "10/10 μg/ml"}, {"measurement": "MIC (>90% inhibition)", "setting": "[9]", "value": ">10/>10 μg/ml"}, {"measurement": "LC (lethal concentration, 100% inhibition)", "setting": "[9]; Pectobacterium carotovorum, at least 4 days of incubation", "value": ">10/>10 μg/ml"}, {"measurement": "MIC (>90% inhibition)", "setting": "Pseudomonas corrugata [10]", "value": 0.5, "unit": "µg/mL"}, {"measurement": "LC (lethal concentration, 100% inhibition)", "setting": "Pseudomonas corrugata [10]; Pseudomonas corrugata, at least 4 days of incubation", "value": 1.0, "unit": "µg/mL"}, {"measurement": "Minimal inhibition concentration (MIC) for complete inhibition of bacterial growth", "setting": "[1]", "value": 1, "unit": "µg/mL"}, {"measurement": "Minimal inhibition concentration (MIC) for complete inhibition of bacterial growth", "setting": "[2]", "value": 1, "unit": "µg/mL"}, {"measurement": "Minimal inhibition concentration (MIC) for complete inhibition of bacterial growth", "setting": "Xanthomonas vesicatoria [3]", "value": 2, "unit": "µg/mL"}, {"measurement": "Minimal inhibition concentration (MIC) for complete inhibition of bacterial growth", "setting": "[4]", "value": ">40", "unit": "µg/mL"}, {"measurement": "Minimal inhibition concentration (MIC) for complete inhibition of bacterial growth", "setting": "Pseudomonas corrugata [5]", "value": 2, "unit": "µg/mL"}, {"measurement": "Minimal inhibition concentration (MIC) for complete inhibition of spore germination/mycelial growth", "setting": "Botrytis cinerea", "value": ">100", "unit": "µg/mL"}, {"measurement": "Minimal inhibition concentration (MIC) for complete inhibition of spore germination/mycelial growth", "setting": "Alternaria alternata", "value": ">100", "unit": "µg/mL"}, {"measurement": "Minimal inhibition concentration (MIC) for complete inhibition of spore germination/mycelial growth", "setting": "Cladosporium herbarum", "value": 10, "unit": "µg/mL"}, {"measurement": "Minimal inhibition concentration (MIC) for complete inhibition of bacterial growth", "setting": "[6]", "value": 2, "unit": "µg/mL"}, {"measurement": "MIC (>90% inhibition)", "setting": "[11]; 1-2 days at 25° C.", "value": "5.0/5.0 μg/ml"}, {"measurement": "LC (lethal concentration, 100% inhibition)", "setting": "[11]; at least 4 days of incubation", "value": "5.0/5.0 μg/ml"}, {"measurement": "MIC (>90% inhibition)", "setting": "Xanthomonas vesicatoria [12]; 1-2 days at 25° C.", "value": 0.5, "unit": "µg/mL"}, {"measurement": "LC (lethal concentration, 100% inhibition)", "setting": "Xanthomonas vesicatoria [12]; at least 4 days of incubation", "value": 1.0, "unit": "µg/mL"}]}]}
